Results reported in US12171856B2, “Use of salidroside derivative in external preparation for skin whitening” (SHANGHAI CHEERMORE BIOLOGICAL TECHNOLOGY CO., LTD, priority 2019, dated 2024).

Columns and labels:
[1] = system: arm skin of the volunteers; assay: Human skin irritation test (patch test); type: in vivo; settings: gel with 10% SP-037 in 2% sodium carboxymethyl cellulose
Method: In order to further achieve the use of SP-037 in the field of skin care, it is necessary to ensure the safety of SP-037 first. In the experiment of this section, a gel (2% sodium carboxymethyl cellulose prepared with deionized water) with the main component of 10% SP-037 was prepared, then volunteers were recruited, and a patch test was conducted on the arm skin of the volunteers to evaluate the safety of SP-037.

[2] = system: skin at the inner side of the arm of volunteers with dark skin; assay: Skin whitening effect in volunteers (Dermalab skin color probe, melanin and L*a*b values); type: in vivo, human
Method: A total of 33 volunteers with dark skin were recruited, and the 33 volunteers were 22 to 38 years old. The 33 volunteers were randomly divided into 7 groups, including: a blank control group: 3, an SP-037 group: 5; a VC group: 5; a kojic acid group: 5; a thiamidol group: 5; a hydroquinone group: 5; and a 377 group: 5. A blank gel and gels with the main components of SP-037, VC, kojic acid, thiamidol, hydroquinone, and 377 respectively were prepared. An inner side of the left arm of each volunteer in each group was washed and then evenly applied with a corresponding gel every day, which lasted for 4 weeks. The Dermalab instrument was used to determine the characteristics of skin at the inner side of the arm with a skin color test probe on day 0, day 14, and day 28 to obtain melanin and L*a*b values, and according to final statistical data, the whitening effect of each component was analyzed.

tool melanocytes = assay: Inhibition of NGF/UV-induced melanin generation in tool melanocytes (absorbance at 490 nm); type: cell-based; settings: 60 h, FIG. 6
Method: Human melanocytes and tool melanocytes were used to conduct the experiment in this section. Human melanocytes and tool melanocytes were inoculated in a 96-well plate, with a plating density of 5,000 cells/well. After the cells adhered to a wall, nerve growth factor (NGF) was added to the culture and the culture was irradiated with UV to induce the generation of melanin, which simulated a melanin generation process in vivo. Then β-D-glucoside derivatives to be tested each were added at a final concentration of 100 μM to the cells, and the cells were further cultivated in an incubator at 37° C. and 5% CO2 for 60 h, where 3 replicates were set for each group. […] The cells were lysed with a NaOH (1 mol/L) solution including 10% dimethyl sulfoxide (DMSO) in a 65° C. water bath to make melanin granules completely dissolved out, and the absorbance at 490 nm was determined with a microplate reader. Finally, the absorbance value was used to reflect a melanin content.
Human melanocytes and tool melanocytes were used to conduct the experiment in this section. […] The cells were lysed with a NaOH (1 mol/L) solution including 10% DMSO in a 65° C. water bath to make melanin granules completely dissolved out, and the absorbance at 490 nm was determined with a microplate reader. Finally, the absorbance value was used to reflect a melanin content. […]

Human melanocytes = assay: Inhibition of NGF/UV-induced melanin generation in human melanocytes (absorbance at 490 nm); type: cell-based; settings: 60 h
Method: Human melanocytes and tool melanocytes were used to conduct the experiment in this section. Human melanocytes and tool melanocytes were inoculated in a 96-well plate, with a plating density of 5,000 cells/well. After the cells adhered to a wall, nerve growth factor (NGF) was added to the culture and the culture was irradiated with UV to induce the generation of melanin, which simulated a melanin generation process in vivo. Then β-D-glucoside derivatives to be tested each were added at a final concentration of 100 μM to the cells, and the cells were further cultivated in an incubator at 37° C. and 5% CO2 for 60 h, where 3 replicates were set for each group. The cells were washed with pre-cooled phosphate buffered saline (PBS), then digested with trypsin, and centrifuged, and a resulting supernatant was discarded. The cells were lysed with a NaOH (1 mol/L) solution including 10% dimethyl sulfoxide (DMSO) in a 65° C. water bath to make melanin granules completely dissolved out, and the absorbance at 490 nm was determined with a microplate reader. Finally, the absorbance value was used to reflect a melanin content.
Human melanocytes and tool melanocytes were used to conduct the experiment in this section. Human melanocytes and tool melanocytes were inoculated in a 96-well plate, with a plating density of 5,000 cells/well. After the cells adhered to a wall, NGF was added to the culture and the culture was irradiated with UV to induce the generation of melanin, which simulated a melanin generation process in vivo. SP-037 was added to the cells at 6 concentrations of 0 μM, 12.5 μM, 25 μM, 50 μM, 100 μM, and 200 μM, and then the cells were further cultivated in an incubator at 37° C. and 5% CO2 for 60 h, where 5 replicates were set for each group. The cells were washed with pre-cooled PBS, then digested with trypsin, and centrifuged, and a resulting supernatant was discarded. The cells were lysed with a NaOH (1 mol/L) solution including 10% DMSO in a 65° C. water bath to make melanin granules completely dissolved out, and the absorbance at 490 nm was determined with a microplate reader. Finally, the absorbance value was used to reflect a melanin content.
Human melanocytes and tool melanocytes were used to conduct the experiment in this section. Human melanocytes and tool melanocytes were inoculated in a 96-well plate, with a plating density of 5,000 cells/well. […] The cells were lysed with a NaOH (1 mol/L) solution including 10% DMSO in a 65° C. water bath to make melanin granules completely dissolved out, and the absorbance at 490 nm was determined with a microplate reader. Finally, the absorbance value was used to reflect a melanin content.

Kunming mice = assay: Long-term toxicity test on mouse skin; type: in vivo
Method: Kunming mice were used to conduct the experiment in this section. SP-037 was prepared into solutions with concentrations of 2.5% (mass to volume ratio), 5% (mass to volume ratio), and 10% (mass to volume ratio) using NS. A control group, a 2.5% dosage group, a 5% dosage group, and a 10% dosage group were set, separately. One mouse was used for the blank group, and two mice were used for each of the experimental groups. Application on the dorsal skin: the hair on the back of mice was removed by depilatory cream, and a drug was applied at a corresponding concentration on the bare skin every day, which lasted for 3 months. During the test period, pictures were taken and the body weight of mice were recorded regularly, and it was observed whether there were white spots and other skin irritation or poisoning phenomena.

With `OC[C@H]1O[C@@H](OCCc2cc(O)cc(O)c2)[C@H](O)[C@@H](O)[C@@H]1O` [SP-037] the “irritating pain, itching felt by volunteers during patch test” value [1] was “no irritating pain, itching, or the like”, the “sensitization to the skin (patch test)” value ([1]; FIG. 9) was “has no sensitization to the skin” and the “effect on melanin content in skin (skin melanin pigmentation)” value ([2]; gel applied daily for 4 weeks, day 0, 14, 28, FIG. 10) was “can significantly improve the skin melanin pigmentation”. The “effect on skin brightness” value ([2]; gel applied daily for 4 weeks, day 0, 14, 28, FIG. 11) was “improve the skin brightness”, the “whitening effect compared with VC, kojic acid, thiamidol, hydroquinone and 377” value ([2]; gels applied daily for 4 weeks, FIG. 10 and FIG. 11) was “significantly better than that of raw materials VC, kojic acid, thiamidol, and hydroquinone currently on the market, but slightly inferior to that of 377” and the “inhibitory activity on melanin generation compared with whitening positive drugs” value (tool melanocytes) was “significantly better than that of VC and kojic acid, but slightly inferior to that of hydroquinone”. For the same molecule, the “effect of SP-037 on a melanin content” value (Human melanocytes; 0-200 μM, human melanocytes and tool melanocytes (not separated in text), FIG. 5) was “can significantly inhibit the generation of melanin at a cellular level”, the “effects of β-D-glucoside derivatives on a melanin content” value (Human melanocytes; final concentration 100 μM, human melanocytes and tool melanocytes (not separated in text), FIG. 1) was “shows the optimal effect” and the “inhibitory activity on in vitro simulated melanin generation compared with whitening positive drugs” value (Human melanocytes; human melanocytes, FIG. 6) was “significantly better than that of the positive drugs VC, kojic acid, and hydroquinone”. For the same molecule, the “concentration showing an ideal effect on melanin generation” value (Human melanocytes; tested at 12.5-200 μM, human melanocytes and tool melanocytes, FIG. 5) was 50 µM, the “white spots, skin irritation injuries or poisoning symptoms” value (Kunming mice; 2.5%, 5%, 10% (mass to volume) in NS applied daily on dorsal skin) was “none of the mice has white spots, redness and swelling, and other skin irritation injuries, or poisoning symptoms” and the “changes in the body weight and skin condition” value (Kunming mice; 2.5%, 5%, 10% (mass to volume) in NS applied daily on dorsal skin, FIG. 7 and FIG. 8) was “in line with the growth pattern of normal mice”. For the same molecule, the “white spots, skin irritation and toxicity (conclusion of long-term toxicity test)” value (Kunming mice; at a dosage of 10% (mass to volume ratio)) was “will not cause white spots, skin irritation, and toxicity”.
